Results as given in publication PMC10685318, “Trans-cyclosulfamidate mannose-configured cyclitol allows isoform-dependent inhibition of GH47 α-D-mannosidases through a bump–hole strategy” (Chemical Science, 2023).

Target: T1, BtMan2A (Bacteroides thetaiotaomicron, UniProt Q8AAK6)
T1 construct: made in house; donated by Dr. W. Offen, University of York
Experiment: 4-MU activity assay for bacterial GH2 β-mannosidase, purified enzyme
Assay type: biochemical
Method: Trans-Cyclosulfamidate Cyclitols Males et al.
2.3 GH38 α-mannosidases and GH2 β-mannosidase inhibition studies
All chemicals were of analytical grade and purchased from Sigma-Aldrich unless stated otherwise.
Optimal stability of cell homogenates and enzyme working stocks was ensured by preparation and temporary storage on ice. Cell homogenates were prepared and used on the same day. Protein concentrations were quantified using the Pierce BCA Protein Assay Kit (ThermoFisher). Protein samples were measured in clear flat-bottom polystyrene 96 well microplates (Greiner Bio-One) using a EMax Plus Microplate Reader (Molecular Devices). Activity measurements of human GH38 α-mannosidases and bacterial β-mannosidase BtMan2A were performed in black flat-bottom polystyrene 96 wells microplates (Greiner Bio-One) and total fluorescence was measured using a Perkin Elmer LS-55 fluorescence spectrometer at wavelengths λex = 366 and λem = 445 nm, with the signal optimized for medium gain readings. The fluorescence values of each enzyme sample were corrected for the background signal of a blank sample containing no enzyme. In the case of IC50 determinations, values were normalized against a control sample containing enzyme without added inhibitor. […]

T1 sequence (Q8AAK6 entry or part of it, change not shown): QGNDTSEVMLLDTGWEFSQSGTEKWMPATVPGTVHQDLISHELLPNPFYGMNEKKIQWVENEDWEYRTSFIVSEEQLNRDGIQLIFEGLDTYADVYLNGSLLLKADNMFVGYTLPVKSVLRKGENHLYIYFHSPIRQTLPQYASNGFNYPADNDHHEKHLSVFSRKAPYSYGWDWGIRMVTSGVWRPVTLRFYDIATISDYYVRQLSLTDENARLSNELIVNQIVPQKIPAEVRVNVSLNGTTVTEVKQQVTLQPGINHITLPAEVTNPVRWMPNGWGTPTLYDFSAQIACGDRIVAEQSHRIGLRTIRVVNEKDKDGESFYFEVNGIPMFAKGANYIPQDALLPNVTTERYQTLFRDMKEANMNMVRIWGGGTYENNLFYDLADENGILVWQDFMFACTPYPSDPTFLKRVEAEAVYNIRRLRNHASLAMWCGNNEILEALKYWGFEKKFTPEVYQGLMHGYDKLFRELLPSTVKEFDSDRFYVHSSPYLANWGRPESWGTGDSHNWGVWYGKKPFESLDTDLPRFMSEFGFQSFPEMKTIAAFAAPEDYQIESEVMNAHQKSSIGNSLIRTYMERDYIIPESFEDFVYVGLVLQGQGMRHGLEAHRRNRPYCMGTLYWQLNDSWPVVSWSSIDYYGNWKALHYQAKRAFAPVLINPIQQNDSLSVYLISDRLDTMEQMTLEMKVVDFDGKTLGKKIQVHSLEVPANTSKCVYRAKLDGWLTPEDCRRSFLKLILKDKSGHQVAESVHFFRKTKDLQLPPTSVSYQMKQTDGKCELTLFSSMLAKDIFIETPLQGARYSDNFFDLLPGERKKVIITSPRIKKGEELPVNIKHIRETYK

O=S1(=O)N[C@@H]2[C@@H](O)[C@@H](O)[C@H](O)[C@@H](CO)[C@H]2O1 [compound 6, 1,6-trans-manno-cyclosulfamidate]
IC50: > 1 mM
